Reference: patent US4200575A, “7[(2-Thiazolyl)-2-(oxoimino)acetamido]cephalosporin derivatives” (Takeda Chemical Industries, Ltd., priority 1977, dated 1980)

Tests used:
Experiment in all cases: Minimal inhibitory concentration (M.I.C.), agar dilution method
Conditions in all cases: TSA, inoculum 10^7 /ml
S. aureus 1840 = type: cell-based, Staphylococcus aureus
From the text: (§1) (a) Determination of minimal inhibitory concentrations (Tables 1 to 8):
(§2) Procedure: agar dilution method

S. aureus 209P = type: cell-based, Staphylococcus aureus
From the text: as §1, §2

E. coli NIHJ JC-2 = type: cell-based, Escherichia coli
From the text: as §1, §2

E. coli T-7 = type: cell-based, Escherichia coli
From the text: as §1, §2

E. coli 0-111 = type: cell-based, Escherichia coli
From the text: The minimal inhibitory concentrations (M.I.C.) of some representative cephalosporin derivatives of this invention as produced by the procedures described in those examples and the minimal inhibitory concentrations of cephalothin [sodium 7-(2-thienylacetamido)-3-acetoxymethyl-3-cephem-4-carboxylate], cephaloridine [7-(2-thienylacetamido)-3-(1-pyridyl)methyl-3-cephem-4-carboxylic acid betaine] and cefazolin [sodium 7-(1H-tetrazol-1-yl)acetamido-3-(2-methyl-1,3,4-thiadiazol-5-yl)thiomethyl-3-cephem-4-carboxylate], which are among the clinically established and commercially available cephalosporins (as described, for example, in the New England Journal of Medicine 294, 24, 1976 and Journal of Pharmaceutical Science 64, 1899, 1975), both against various bacteria, as well as the therapeutic effects of some respresentative cephalosporin derivatives of this invention and of cephaloridine in infected mice, are shown in tables.
as §1, §2

K. pneumoniae DT = type: cell-based, Klebsiella pneumoniae
From the text: as §1, §2

K. pneumoniae GN 3835 = type: cell-based, Klebsiella pneumoniae
From the text: as §1, §2

S. marcescens IFO 12648 = type: cell-based, Serratia marcescens
From the text: as §1, §2

S. marcescens TN 24 = type: cell-based, Serratia marcescens
From the text: as §1, §2

P. vulgaris GN 4413 = type: cell-based, Proteus vulgaris
From the text: as §1, §2

P. vulgaris IFO 3988 = type: cell-based, Proteus vulgaris
From the text: as §1, §2

P. mirabilis GN 4359 = type: cell-based, Proteus mirabilis
From the text: as §1, §2

P. morganii IFO 3168 = type: cell-based, Proteus morganii
From the text: as §1, §2

P. rettgeri GN4733 = type: cell-based, Proteus rettgeri
From the text: as §1, §2

P. rettgeri TN 338 = type: cell-based, Proteus rettgeri
From the text: as §1, §2

C. freundii GN 1706 = type: cell-based, Citrobacter freundii
From the text: as §1, §2

C. freundii GN 99 = type: cell-based, Citrobacter freundii
From the text: as §1, §2

E. cloacae TN 1282 = type: cell-based, Enterobacter cloacae
From the text: as §1, §2

| Compound | minimal inhibitory concentration (M.I.C.) (S. aureus 1840) | minimal inhibitory concentration (M.I.C.) (S. aureus 209P) | minimal inhibitory concentration (M.I.C.) (E. coli NIHJ JC-2) | minimal inhibitory concentration (M.I.C.) (E. coli T-7) | minimal inhibitory concentration (M.I.C.) (E. coli 0-111) | minimal inhibitory concentration (M.I.C.) (K. pneumoniae DT) | minimal inhibitory concentration (M.I.C.) (K. pneumoniae GN 3835) | minimal inhibitory concentration (M.I.C.) (S. marcescens IFO 12648) | minimal inhibitory concentration (M.I.C.) (S. marcescens TN 24) | minimal inhibitory concentration (M.I.C.) (P. vulgaris GN 4413) | minimal inhibitory concentration (M.I.C.) (P. vulgaris IFO 3988) | minimal inhibitory concentration (M.I.C.) (P. mirabilis GN 4359) | minimal inhibitory concentration (M.I.C.) (P. morganii IFO 3168) | minimal inhibitory concentration (M.I.C.) (P. rettgeri GN4733) | minimal inhibitory concentration (M.I.C.) (P. rettgeri TN 338) | minimal inhibitory concentration (M.I.C.) (C. freundii GN 1706) | minimal inhibitory concentration (M.I.C.) (C. freundii GN 99) | minimal inhibitory concentration (M.I.C.) (E. cloacae TN 1282) |
| --- | --- | --- | --- | --- | --- | --- | --- | --- | --- | --- | --- | --- | --- | --- | --- | --- | --- | --- |
| Cc1nnc(SCC2=C(C(=O)[O-])N3C(=O)C(NC(=O)Cn4cnnn4)[C@H]3SC2)s1.[Na+] (some centres unmarked) [Cefazolin, sodium 7-(1H-tetrazol-1-yl)acetamido-3-(2-methyl-1,3,4-thiadiazol-5-yl)thiomethyl-3-cephem-4-carboxylate, reference compound] | 1.56 | 0.39 | 1.56 | 50 | 1.56 | 1.56 | 6.25 | > 100 | > 100 | > 100 | 3.13 | 6.25 | 100 | 100 | ≤ 0.2 | > 100 | 12.5 |  |
| CC(=O)OCC1=C(C(=O)[O-])N2C(=O)C(NC(=O)Cc3cccs3)[C@H]2SC1.[Na+] (some centres unmarked) [Cephalothin, sodium 7-(2-thienylacetamido)-3-acetoxymethyl-3-cephem-4-carboxylate, reference compound] | 0.39 | 0.20 | 12.5 | 100 | 3.13 | 1.56 | 12.5 | > 100 | > 100 | > 100 | 1.56 | 3.13 | > 100 | > 100 | 1.56 | > 100 | 25 | > 100 |
| CNC(=O)O/N=C(\C(=O)NC1C(=O)N2C(C(=O)O)=C(COC(C)=O)CSC12)c1csc(=N)[nH]1 (stereo not drawn) [Example II - 1, sodium 7-[2-(2-imino-4-thiazolin-4-yl)-2-methylcarbamoyloximinoacetamido]-3-acetoxymethyl-3-cephem-4-carboxylate (syn-isomer)] | 3.13 | 1.56 | 0.1 | 0.39 | ≤ 0.012 | 0.05 | 0.1 | 3.13 | 6.25 | 12.5 | 0.05 | 0.1 | 0.39 | 0.05 | ≤ 0.012 | 0.39 | 0.1 | 1.56 |
